# System: A549 human lung carcinoma cells
# Assay: Chemotherapeutic drugs as possible positive control, 24 hour incubation with XTT endpoint
# Type: cell-based
# Settings: data not shown
# Protocol: The broadly active chemotherapeutics drugs SN-38 (20 μM top dose), the active metabolite of irinotecan, carboplatin (7.5 mM top dose), and paclitaxel (20 μM top dose) are tested to determine if sufficient cell killing can be achieved under the anticipated assay conditions, i.e., 24 hour incubation with XTT endpoint.
SMILES,cell killing (20 μM top dose),cell killing (7.5 mM top dose)
CC(=O)O[C@H]1C(=O)[C@@]2(C)[C@H]([C@H](OC(=O)c3ccccc3)[C@]3(O)C[C@H](OC(=O)[C@H](O)[C@@H](NC(=O)c4ccccc4)c4ccccc4)C(C)=C1C3(C)C)[C@]1(OC(C)=O)CO[C@@H]1C[C@@H]2O [paclitaxel],None of the drugs produce sufficient cell killing,
CCc1c2c(nc3ccc(O)cc13)-c1cc3c(c(=O)n1C2)COC(=O)[C@]3(O)CC [SN-38],None of the drugs produce sufficient cell killing,
N.N.O=C([O-])C1(C(=O)[O-])CCC1.[Pt+2] [carboplatin],,None of the drugs produce sufficient cell killing
